Reference: patent EP1614416A2, “Method for treating amyloidosis” (QUEEN'S UNIVERSITY AT KINGSTON, priority 1993, dated 1994)
Structures can show the parent of a compound that is named as a salt.

What was measured:
Type in all cases: in vivo, mice
[1] = tested on: AA amyloid deposition in mouse spleen; assay: Acute AA amyloidosis mouse model (AgNO3 + AEF), intraperitoneal treatment, Experiment 1; conditions: 36.5 mg/injection IP every 8 hours, mean ± S.E.M., n = 5, untreated 7.8, p ≤ 0.02, immunostained sections, image analysis
Protocol: (§1) In the following experiments, a well-characterized mouse model of amyloidosis was used. In this in vivo system, animals receive an inflammatory stimulus and amyloid enhancing factor. For acute amyloidosis (i.e., short term amyloid deposition), the inflammatory stimulus is AgNO3. For chronic amyloidosis (ongoing amyloid deposition), the inflammatory stimulus is lipopolysaccharide (LPS). Amyloid deposition (AA amyloid) in the spleens of mice was measured with and without therapeutic treatment.
All mice were of the CD strain (Charles Rivers, Montreal, Quebec) and weighing 25-30 g. […]
At the termination of the experiments, the animals were sacrificed by cervical dislocation and the spleens, livers, and kidneys were fixed in 96% ethanol, 1% glacial acetic acid and 3% water as described in Lyon, A.W. et al. ("Co-deposition of Basement Membrane Components During the Induction of Murine Splenic AA Amyloid" Lab. Invest. 64:785-790 (1991)). […] The histologic sections viewed under polarized light were assessed by image analysis for the percent of spleen occupied by amyloid. In the case of the experiments with sucrose octasulfate, the tissues were immunostained with an antibody to the SAA protein (described in Lyon A.W. et al. Lab Invest. 64:785-790 (1991)) and the immunostained sections assessed by image analysis for the percent of tissue section occupied by amyloid.

[2] = Viability of animals under intraperitoneal therapy, Experiment 1
Protocol: All animals received AgNO3 (0.5 ml, 2% solution) subcutaneously in the back, and amyloid enhancing factor (AEF) 100 µg intravenously. The preparation of amyloid enhancing factor has been described previously in Axelrad, M.A. et al. ("Further Characterization of Amyloid Enhancing Factor" Lab. Invest. 47:139-146 (1982)). The animals were divided into several groups one of which was an untreated control group which was sacrificed six days later. The remaining animals were divided into those which received poly(vinyl sulfonic acid sodium salt) (PVS) at 50 mg, 40 mg, 20 mg, or 10mg by intraperitoneal injection every 12 hours or sucrose octasulfate ammonium salt (SOA) at 73 mg or 36.5 mg every 8 hours by IP injection. Surviving animals were sacrificed on the 5th day of treatment. In all cases the PVS or SOA was dissolved in a sterile aqueous carrier.
All control animals survived the experiment without incident. […] Animals receiving 36.5 mg of sucrose octasulfate/injection all survived. […] In all cases of animal deaths prior to the end of the experiments, the cause of death was uncontrolled intraperitoneal hemorrhage.
Intraperitoneal injection was selected as providing a large membrane surface for ease of access to the circulating system. […]

amyloid deposition = assay: Acute amyloidosis (AgNO3 + AEF), oral sulfonated lower aliphatics, visual examination of spleen sections, Experiment 8; conditions: 50 µM in drinking water, six days; preliminary visual analysis of spleen sections
Protocol: Acute amyloidosis was elicited in mice with AgNO3 and amyloid enhancing factor as described in Experiment 2. Twenty-four hours later, the animals were divided into a control group and six test groups. The control group was maintained on standard laboratory mouse chow and tap water ad. lib. The test groups received standard chow but their water contained 50 µM of one of the following six compounds: ethanesulfonic acid sodium salt, 2-amino-ethanesulfonic acid sodium salt (taurine), propane-1-sulfonic acid sodium salt, ethane-1,2-disulfonic acid sodium salt, propane-1,3-disulfonic acid sodium salt, or butane-1,4-disulfonic acid sodium salt. Water intake was approximately equivalent for all groups. After six days, the animals were sacrificed and their spleens were processed as described for Experiment 2. For preliminary analysis, the spleen sections were examined visually under a microscope for differences in amyloid deposition in the treated animals versus the control animals.

[3] = tested on: AA splenic amyloid deposition; assay: Chronic amyloidosis (LPS + AEF, inflammatory stimulus maintained), oral treatment from day 7, Experiments 5 and 6
Protocol: as §1
To maintain the inflammation and the blood SAA levels, and allow amyloid to be continuously deposited for the duration of a longer term experiment, the nature of the inflammatory stimulus was changed. So as to maintain the inflammation, animals received lipopolysaccharide (LPS, 20 µg)+ AEF on day 0 and LPS was given by intraperitoneal injection every 2nd day. On day seven (7), the animals were separated into two groups as described in Experiment 4. Assessment of amyloid over the course of the experiment proceeded as described in Experiment 4. The control group (triangles) continued to deposit amyloid for the entire 17 day period. Those receiving PVS apparently stopped depositing amyloid by day 14 (open circles and dashed line). The data on day 17 represent 4 animals per group as one animal was omitted from this time period. The quantity of amyloid in this particular individual was so far removed from all other data points (treated or not, it was 21%) that it is believed that this was a statistically valid procedure. If this individual is included, the curve is represented by the dotted line and the remaining open circle. It should be pointed out that animals receiving PVS began to develop a significant diarrhea as the experiment proceeded.
In this experiment, another sulfonated compound, ethane monosulfate was used to inhibit amyloidosis. Ethane monosulfonate, sodium salt, (EMS) is structurally the monomeric unit of PVS. Animals were given LPS + AEF as in Experiment 5, but on day seven EMS was used in the drinking water as the therapeutic agent. […]

N.N.N.N.N.N.N.N.O=S(=O)(O)OC[C@H]1O[C@@](COS(=O)(=O)O)(O[C@H]2O[C@H](COS(=O)(=O)O)[C@@H](OS(=O)(=O)O)[C@H](OS(=O)(=O)O)[C@H]2OS(=O)(=O)O)[C@@H](OS(=O)(=O)O)[C@@H]1OS(=O)(=O)O [sucrose octasulfate, sucrose octasulfate ammonium salt]
% Area Occupied by Amyloid ([1]; ammonium salt): 3.2% ± 0.5%
% Area Occupied by Amyloid ([1]; listed as Sucrose OctaSO4, ammonium salt): 3.2 ± 0.5%
viability of animals ([2]; 36.5 mg/injection IP every 8 hours): all survived
viability of animals ([2]; 73 mg/injection IP every 8 hours, cause of death intraperitoneal hemorrhage): succumbed prior to the termination of the experiment

CCCS(=O)(=O)[O-].[Na+] [propane-1-sulfonic acid sodium salt]
amyloid deposition versus control animals (amyloid deposition): less amyloid deposition than control animals

O=S(=O)([O-])CCCCS(=O)(=O)[O-].[Na+].[Na+] [butane-1,4-disulfonic acid sodium salt]
amyloid deposition versus control animals (amyloid deposition): not observed to have less amyloid deposition than control animals

CCS(=O)(=O)O [EMS, Ethane monosulfonate, sodium salt]
course of splenic amyloid deposition (Figure 8) ([3]; 6 mg/ml EMS in drinking water from day 7): stopped depositing amyloid after day 14
gastrointestinal side effect ([3]; EMS 2.5 or 6 mg/ml in drinking water): did not develop gastrointestinal problems
inhibition of chronic amyloid deposition ([3]; restated in Experiment 8 with reference to Experiment 6): has been observed to inhibit chronic amyloid deposition
amyloid deposition versus control animals (amyloid deposition): not observed to have less amyloid deposition than control animals

NCCS(=O)(=O)[O-].[Na+] [taurine sodium salt, 2-amino-ethanesulfonic acid sodium salt]
amyloid deposition versus control animals (amyloid deposition): not observed to have less amyloid deposition than control animals

O=S(=O)([O-])CCS(=O)(=O)[O-].[Na+].[Na+] [ethane-1,2-disulfonic acid sodium salt]
amyloid deposition versus control animals (amyloid deposition): less amyloid deposition than control animals

O=S(=O)([O-])CCCS(=O)(=O)[O-].[Na+].[Na+] [propane-1,3-disulfonic acid sodium salt]
amyloid deposition versus control animals (amyloid deposition): less amyloid deposition than control animals
